US5219867A, “Platelet aggregation inhibitory agents” (priority 1992, dated 1993)
Where a name gives a salt, the structure may show the parent alone. Read-outs that look alike come from different tables or passages of the source.

What was measured:
Format in all cases: cell-based
human blood platelets = assay: In vitro inhibition of ADP-induced human platelet aggregation (platelet-rich plasma, aggregometer)
Experimental: Procedure for Determining In Vitro Platelet Aggregation-Inhibitory Activity. Adenosine diphosphate (ADP) was used to induce platelet aggregation and was utilized as the sodium salt. A 10 mM stock solution was prepared fresh before each use in modified Tyrode's buffer and working dilutions were prepared with modified Tyrode's buffer immediately prior to use. The buffer contained NaCl (137.00 mM), KCl (2.70 mM), NaHCO3 (11.90 mM), NaH2 PO4 H2 O (0.36 mM) and glucose (5.60 mM) in redistilled water. Adjustment to pH 7.4 was effected by addition of 1N HCl.
The blood was transferred into plastic centrifuge tubes containing 3.2% sodium citrate (blood/citrate ratio 8:1) and centrifuged at 120Xg for 15 minutes at 23° C., yielding platelet-rich plasma (PRP); platelet-poor-plasma (PPP) was obtained by centrifugation of citrated whole blood at 1,100Xg for 15 min at 23° C. The platelet count of PRP was determined and adjusted to a final count of 300,000 platelet per mm^3 by dilution with autologous PPP. […] The plasma so obtained was transferred using a 1.0 ml Centaur pipette into a 50 ml polyethylene centrifuge tube. In order to maintain plasma pH in the appropriate range, the air in the tubes are displaced gently (2 minutes) with a 5% (CO2 -95% air (v/v) mixture and the tube capped. The plasma was maintained at 37° C. in a water bath until used in the aggregation experiments.
Assays of platelet aggregation were performed at least in duplicate, using plasma acquired from different donors, employing a method developed by Quintana, et al. (Quintana, et al., Relationships Between the Chemical Constitution of Carbamoylpiperidines and Related Compounds, and Their Inhibition of ADP-Induced Human Blood Platelet Aggregation, Thromb. Res. Vol. 22, Pages 665-680, 1981); Quintana, et al., Effects of Ethanol and of Other Factors on ADP-Induced Aggregation of Human Blood Platelets in Vitro, Thromb. Res., Vol. 20, Pages 405-415, 1980) (cf. Born, Nature, Vol. 194, Pages 927-929, 1962) and Mustard, et al., J. Lab. Clin. Med., Vol. 64, Pages 548-559, 1964).
Initially, in each experiment, 0.45-ml aliquots of PRP were placed in siliconized cuvettes and stirred (1,100 rpm) in the aggregometer at 37° C. to ascertain the absence of spontaneous aggregation. Appropriate ADP solutions (50 μl) were subsequently injected using a Hamilton microliter syringe to determine the minimal concentration eliciting maximal biphasic aggregation. […] In each case, the concentration of ADP so determined was used in eliciting aggregation throughout each specific set of aggregometric evaluations.
0.5 μl of a solution of the evaluant compound in redistilled 95% ethanol was injected into a stirred ([…]) 0.4-ml aliquot of plasma in a siliconized cuvette in the aggregometer-well (37° C). After 15 seconds, the cuvette was transferred to an incubator (also at 37° C.) and the contents held at this temperature, without stirring, until 2 minutes postinjection. The cuvette was then returned to the aggregometer-well, a base-line being recorded for 2 minutes to detect any spontaneous aggregation. At exactly 4 minutes after injection of the evaluant solution, 50 μl of the appropriate ADP solution was injected and aggregation recorded for 5.5 minutes. Evaluants were studied at least 4 different concentrations. Control experiments (ethanol in a final concentration of 0.095% v/v) were performed in conditions parallel with those involving the respective evaluants, and were initiated either 1 minute prior to or 1 minute after the start of experiments employing the test compounds. This permitted injections to be made precisely at the specified times.

human platelets = assay: Inhibition of collagen-induced aggregation, washed aequorin-loaded platelet suspension; conditions: Homo sapiens, Platelet; collagen-induced aggregation (n = 4); HEPES-buffered saline, 1.0 mM CaCl2; read-out: Ia50 ± S.E. Collagen-induced
Experimental: (§1) Procedure for Cytosolic Ionized Calcium Determination. The basic procedure of Yamaguchi, et al. (Thromb. Res., Vol. 44, Pages 165-174, 1986) was followed. Blood was collected from six blood donors, aged 24-38 years, who had fasted overnight and affirmed abstinence from alcohol, caffeine and medications of any kind for a period of at least one week prior to donation. […] Platelets were collected (800 g, 15 min), resuspended in and washed (800 g, 15 min) with HEPES-buffered saline (140 mM NaCl, 2.7 mM KCl, 0.1% bovine albumin, 0.5% glucose, 3.8 mM HEPES, pH 7.6) with EGTA (5 mM) and PGE1 (1 μM). The platelet pellet was resuspended in 90 μl of the same buffer and added to 20μl of 3 mg/ml aequorin solution in a 1.5 ml Eppendorf centrifuge tube. Six 1 μl aliquots of DMSO were added at 90 second intervals with brief, gentle mixing on a Vortex mixer and the platelet suspension was incubated 2 minutes after the last addition. One ml of HEPES-buffered saline was added, gently mixed, and again incubated for 2 minutes. The platelets were pelleted (1000 g, 30 sec), resuspended in HEPES-buffered saline to which was added either 1 mM Mg Cl2, (calcium-free buffer) or 1 mM Mg Cl2 and 1 mM Ca Cl2 (calcium buffer), depending on the experiment. The platelet count was adjusted to 3-4×10^5 platelets/μl.
(§2) The Platelet Ionized Calcium Aggregometer (Chrono-Log Corp., Ltd., Havertown, Pa.) was used to obtain simultaneous aggregation and luminescence data under the following experimental conditions: (1) platelet suspension, 1 ml, was equilibrated at 37° C. with stirring at 1100 rpm; (2) 100 μl (1.2 μg) of fibrinogen was added; (3) the vehicle (95% ethanol) or the test compound in vehicle was added; (4) when needed, 10 μl of the desired concentration of EGTA was added 30 seconds prior to addition of the agonist; then (5) the agonist (Collagen, 5 μg or 20 μg) was added and the time noted. At one minute after addition of the agonist in Channel 1, a platelet sample containing fibrinogen in Channel 2 was lysed with 10 μl of a 1:1 solution of Triton X-100 (final concentration 0.005%) 10 mM CaCl2 (final concentration 0.5 mM). Treated and control […] data were corrected for time dependent decay of fluorescence using data from the untreated lysed controls.
(§3) Normally 4 compound-treated samples (at 4 different concentrations) interspersed with 3 control samples were evaluated at 4.5 minute intervals starting 18-23 minutes after the DMSO treatment. The Ia50 values were calculated as described earlier. The compound concentrations effecting 50% inhibition (Ica50) of collagen-induced cytosolic ionized calcium values was determined by linear regression analysis.
Compounds I-rac, (+)-I,(IC) and (-)-I(IA) were evaluated. The Ia50 (collagen-induced aggregation) and Ica50 (compound concentration required to inhibit by 50% the collagen-induced rise in cytosolic ionized calcium)values determined with platelet suspensions in HEPES-buffered saline containing 1.0 mM CaCl2 were as follows: […]

[1] = system: cytosolic ionized calcium in human platelets; assay: Inhibition of collagen-induced rise in cytosolic ionized calcium (aequorin luminescence); conditions: collagen-induced, 1mM [Ca2+]o (n = 4), read-out: Ica50 ± S.E. Collagen-induced (50% inhibition of collagen-induced rise in cytosolic ionized calcium)
Experimental: as §1, §2, §3
Compounds I-rac, (+)-I,(IC) and (-)-I(IA) were evaluated. The Ia50 (collagen-induced aggregation) and Ica50 (compound concentration required to inhibit by 50% the collagen-induced rise in cytosolic ionized calcium)values determined with platelet suspensions in HEPES-buffered saline containing 1.0 mM CaCl2 were as follows:
Collagen-stimulation of platelets suspended in media containing 1.0 mM of Ca^2+ (FIG. 13) or 1.0 mM (FIG. 14A) or 2.0 mM (FIG. 14B) EGTA (a calcium chelator) gave […] cytosolic ionized calcium peak (aequorin-indicated luminescence). Contrarily, two phases of Ca^2+ mobilization were observed when aequorin-loaded human platelets suspended in a medium containing 0.1 mM EGTA were stimulated with collagen (FIG. 14, designation D). The first corresponded to platelet shape change and the second peak to aggregation. […] The platelet suspension (1.0 ml) was pre-incubated with 1.0 μl of (A) 95% ethanol, (B) a solution of Compound I (14.59 μM) in 95% ethanol, or (C) a solution of Compound I (23.87 μM) in 95% ethanol. Collagen (20 μg) was added at time indicated by the arrows. Luminescence was again recorded at a gain of 0.5. […] Accordingly, the stereo-selective inhibitory properties of the compounds of the present invention appear to be mediated through the inhibition of [Ca^2+ ].

[2] = Homo sapiens, Platelet, racemic compounds, ADP-induced, read-out: IC50 (compound concentration which inhibits ADP-induced platelet aggregation by 50%) ± S.E.
[3] = Homo sapiens, Platelet, read-out: IC50 (compound concentration which inhibits ADP-induced platelet aggregation by 50%) ± S.E., racemic compounds, ADP-induced
[4] = Homo sapiens, Platelet, read-out: Ia50 ± S.E. ADP-induced, table 4, ADP-induced, 5 to 7 individual determinations
[5] = Homo sapiens, Platelet, read-out: Ia50 (compound concentrations affecting 50% inhibition of aggregation) ± S.E., Table II, ADP-induced, n = 5 for (0)I and 6 for all others
[6] = Homo sapiens, Platelet, read-out: Ia50 ± S.E. ADP-Induced, table 3, ADP-induced (n = 5-6)

## CCN(CC)CC1CCCN(Cc2ccc(CN3CCCC(CN(CC)CC)C3)cc2)C1 (racemic) [Compound 4, α,α'-Bis[3-(N,N-diethylaminomethyl)-piperidino]-p-xylene tetrahydrochloride]
Human blood platelets; [2]
  IC50: 156 ± 460 µM
Human blood platelets; Homo sapiens, Platelet, racemic compounds, C = IC50 × 10^-3, read-out: Log1/C (converted)
  IC50: 1570 µM

## O=C(NCc1ccccc1)C1CCCN(Cc2ccc(CN3CCCC(C(=O)NCc4ccccc4)C3)cc2)C1 (racemic) [Compound 5, α,α'-Bis[3-(N-benzylcarbamoyl)piperidino]p-xylene dihydrobromide]
Human blood platelets; [2]
  IC50: 53.6 ± 5.3 µM

## CCN(Cc1ccccc1)C(=O)C1CCCN(Cc2ccc(CN3CCCC(C(=O)N(CC)Cc4ccccc4)C3)cc2)C1 (racemic) [Compound 6, α,α'-Bis[3-(N-benzyl-N-ethylcarbamoyl)piperidino]-p-xylene dihydrobromide]
Human blood platelets; [2]
  IC50: 37.7 ± 4.6 µM

## CCCN(Cc1ccccc1)C(=O)C1CCCN(Cc2ccc(CN3CCCC(C(=O)N(CCC)Cc4ccccc4)C3)cc2)C1 (racemic) [Compound 7, α,α'-Bis[3-(N-benzyl-N-propylcarbamoyl)piperidino]p-xylene dihydrobromide]
Human blood platelets; [2]
  IC50: 72.9 ± 20.8 µM

## O=C(C1CCCN(Cc2ccc(CN3CCCC(C(=O)N(Cc4ccccc4)Cc4ccccc4)C3)cc2)C1)N(Cc1ccccc1)Cc1ccccc1 (racemic) [Compound 8, α,α'-Bis[3-(N,N-dibenzylcarbamoyl)piperidino] p-xYlene dihydrobromide]
Human blood platelets; [2]
  IC50: 303 ± 60.8 µM

## O=C(C1CCCN(Cc2ccc(CN3CCCC(C(=O)N4CCCCC4)C3)cc2)C1)N1CCCCC1 (racemic) [Compound 10, α,α'-Bis[3-(piperidinocarbonyl)piperidino] p-xylene dihydrobromide]
Human blood platelets; Homo sapiens, Platelet, table 4, ADP-induced, 5 to 7 individual determinations, read-out: Ia50 ± S.E. ADP-induced
  IC50: 28.9 ± 8.96 µM

## CN(Cc1ccccc1)C(=O)C1CCCN(Cc2ccc(CN3CCCC(C(=O)N(C)Cc4ccccc4)C3)cc2)C1 (racemic) [Compound 13c, α,α'-Bis[3-(N-benzyl-N-methylcarbamoyl)piperidino]p-xylene]
Human blood platelets; [3]
  IC50: 27.3 ± 3.2 µM
Human blood platelets; [4]
  IC50: 27.3 ± 3.23 µM

## CN(Cc1ccccc1)C(=O)C1CCCN(Cc2ccc(CN3CCCC(C(=O)N(C)Cc4ccccc4)C3)cc2)C1 (single isomer, unassigned) [Compound 13c-A]
Human blood platelets; read-out: Ia50 ± S.E. ADP-induced, table 4, ADP-induced, 5 to 7 individual determinations, listed as 13c-A(-)
  IC50: 57.4 ± 6.01 µM

## CN(Cc1ccccc1)C(=O)C1CCCN(Cc2ccc(CN3CCCC(C(=O)N(C)Cc4ccccc4)C3)cc2)C1 (single isomer, unassigned) [Compound 13c-C]
Human blood platelets; read-out: Ia50 ± S.E. ADP-induced, table 4, ADP-induced, 5 to 7 individual determinations, listed as 13c-C(+)
  IC50: 9.55 ± 1.47 µM

## CCN(CC)C(=O)C1CCCN(Cc2ccc(CN3CCCC(C(=O)N(CC)CC)C3)cc2)C1 (single isomer, unassigned) [IA]
Human blood platelets; [5]
  IC50: 233 ± 52.1 µM
Human blood platelets; [6]
  IC50: 233 µM
Human platelets
  IC50: 199 µM
[1]; listed as IA (-)-I
  IC50: 171 µM

## CN(C)CCCN1c2ccccc2Sc2ccc(Cl)cc21 [Chlorpromazine, reference compound]
Human blood platelets; [5]
  IC50: 156 ± 25.5 µM

## CCCCN(C)C(=O)C1CCCN(Cc2ccc(CN3CCCC(C(=O)N(C)CCCC)C3)cc2)C1 (stereo not drawn) [Compound 9, α,α'-Bis[3-(N-methyle-N-butylcarbamoyl)piperidino] p-xylene dihydrobromide]
Human blood platelets; [3]
  IC50: 22.1 ± 5.5 µM

## CN(Cc1ccccc1)C(=O)[C@@H]1CCCN(Cc2ccc(CN3CCC[C@H](C(=O)N(C)Cc4ccccc4)C3)cc2)C1 [Compound 13c-B]
Human blood platelets; [4]
  IC50: 46.9 ± 8.37 µM

## CCN(CC)C(=O)[C@@H]1CCCN(Cc2ccc(CN3CCC[C@H](C(=O)N(CC)CC)C3)cc2)C1 [IB]
Human blood platelets; [5]
  IC50: 41.4 ± 11.8 µM
Human blood platelets; [6]
  IC50: 41.4 µM
Human platelets
  IC50: 65.7 µM
[1]; Homo sapiens, Platelet
  IC50: 24.3 µM

## CN1CCN(CCCN2c3ccccc3Sc3ccc(C(F)(F)F)cc32)CC1 [Trifluoperazine, reference compound]
Human blood platelets; Homo sapiens, Platelet, Table II, ADP-induced, n = 5 for (0)I and 6 for all others, read-out: Ia50 (compound concentrations affecting 50% inhibition of aggregation) ± S.E.
  IC50: 202 ± 21.9 µM
